Measurements from ChEMBL document CHEMBL2407060, “1,1-Dioxo-5,6-dihydro-[4,1,2]oxathiazines, a novel class of 11ß-HSD1 inhibitors for the treatment of diabetes” (Bioorg Med Chem Lett, 2013).

Legend:
[1] = Drug metabolism in mouse liver microsomes after 20 mins; format: ADME, Microsome; details: read-out: Drug metabolism
[2] = Drug metabolism in human liver microsomes after 20 mins; format: ADME, Microsome; details: read-out: Drug metabolism
[3] = molecular target: 11-beta-hydroxysteroid dehydrogenase 1 (Mus musculus, UniProt P50172); test: Inhibition of mouse 11beta-HSD1
[4] = Metabolic stability in plasma (unknown origin) assessed as compound degradation; format: ADME, cell-free
[5] = Chemical stability of the compound under acidic condition; format: physicochemical
[6] = Chemical stability of the compound under neutral condition; format: physicochemical
[7] = molecular target: 11-beta-hydroxysteroid dehydrogenase 1 (Rattus norvegicus, UniProt P16232); test: Inhibition of rat 11beta-HSD1
[8] = molecular target: 11-beta-hydroxysteroid dehydrogenase 1 (Homo sapiens, UniProt P28845); test: Inhibition of human 11beta-HSD1
Chain of 11-beta-hydroxysteroid dehydrogenase 1 (Homo sapiens, UniProt P28845) (P28845 whole entry): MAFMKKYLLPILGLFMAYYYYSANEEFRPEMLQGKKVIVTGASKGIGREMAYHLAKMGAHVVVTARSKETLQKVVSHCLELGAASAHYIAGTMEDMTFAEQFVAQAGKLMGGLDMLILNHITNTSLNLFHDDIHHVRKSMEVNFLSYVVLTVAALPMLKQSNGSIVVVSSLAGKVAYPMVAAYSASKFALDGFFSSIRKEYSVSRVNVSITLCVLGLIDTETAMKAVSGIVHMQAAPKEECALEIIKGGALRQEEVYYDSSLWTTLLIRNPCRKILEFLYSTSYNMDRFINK

Chain of 11-beta-hydroxysteroid dehydrogenase 1 (Mus musculus, UniProt P50172) (P50172 whole entry): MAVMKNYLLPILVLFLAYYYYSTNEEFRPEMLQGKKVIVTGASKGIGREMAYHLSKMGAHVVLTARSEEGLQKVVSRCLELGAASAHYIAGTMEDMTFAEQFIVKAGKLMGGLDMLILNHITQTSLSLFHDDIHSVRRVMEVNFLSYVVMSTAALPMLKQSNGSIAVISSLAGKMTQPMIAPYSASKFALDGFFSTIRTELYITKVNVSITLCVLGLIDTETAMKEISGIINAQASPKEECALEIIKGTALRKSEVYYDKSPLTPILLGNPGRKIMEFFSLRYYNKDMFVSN
Chain of 11-beta-hydroxysteroid dehydrogenase 1 (Rattus norvegicus, UniProt P16232) (P16232 whole entry): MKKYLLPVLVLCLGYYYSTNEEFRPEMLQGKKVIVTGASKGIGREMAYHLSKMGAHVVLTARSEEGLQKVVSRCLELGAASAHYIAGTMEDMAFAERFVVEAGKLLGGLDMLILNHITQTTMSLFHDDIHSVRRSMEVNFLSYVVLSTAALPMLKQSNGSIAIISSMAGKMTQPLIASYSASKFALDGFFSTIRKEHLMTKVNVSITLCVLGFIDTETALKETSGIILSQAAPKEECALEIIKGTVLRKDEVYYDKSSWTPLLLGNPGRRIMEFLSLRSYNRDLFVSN

Structure (SMILES) | metabolised at 20 min [1] | metabolised at 20 min [2] | IC50 [3] | also measured
O=S1(=O)N=C(N[C@@H](CCCO)c2ccccc2)O[C@H]2CCCC[C@H]21 | 78% | 89% | 294 nM | 
CC1(C)OC(NC2CCCCC2)=NS(=O)(=O)C1(C)C | 9% | 5% | 865 nM | 
CC1(C)OC(NC2CCCCC2)=NS(=O)(=O)C12CC2 |  |  | 1620 nM | 
O=S1(=O)N=C(NC2CCCCC2)OC2(CCC2)C12CC2 |  |  | 813 nM | 
CCC1OC(NC2CCCCC2)=NS(=O)(=O)C12CC2 (centres undefined) |  |  | 2510 nM | 
C[C@H](NC1=NS(=O)(=O)C(C)(C)C(C)(C)O1)c1ccccc1 |  |  | 286 nM | 
C[C@H](NC1=NS(=O)(=O)C(C)(C)C(C)(C)O1)c1ccccc1Cl |  |  | 29 nM | 
CC1(C)OC(N[C@@H](CCO)c2ccccc2)=NS(=O)(=O)C1(C)C | 11% | 4% | 232 nM | 
CC1(C)OC(N[C@@H](CCO)c2ccccc2Cl)=NS(=O)(=O)C1(C)C | 52% | 25% | 26 nM | 
CC1(C)OC(N[C@@H](CCO)c2cccc(C#N)c2)=NS(=O)(=O)C1(C)C |  |  | 110 nM | 
CC1(C)OC(N[C@@H](CCO)c2ccc(F)cc2)=NS(=O)(=O)C1(C)C | 9% | 2% | 199 nM | 
CC(C)(O)C[C@H](NC1=NS(=O)(=O)C(C)(C)C(C)(C)O1)c1ccccc1Cl |  |  | 452 nM | 
O=S1(=O)N=C(NC2CCCCC2)O[C@H]2CCCC[C@H]21 |  |  |  | Stability [4]: Stable; Stability [5]: Stable; Stability [6]: Stable; IC50 [7]: 246 nM
O=S1(=O)NC(=NC2CCCCC2)O[C@@H]2CCCC[C@H]21 |  |  |  | IC50 [7]: 1140 nM
O=S1(=O)NC(=NCc2ccccc2)O[C@H]2CCCC[C@H]21 |  |  | 786 nM | 
O=S1(=O)NC(=NC23CCC(CC2)CC3)O[C@H]2CCCC[C@H]21 | 87% | 94% | 275 nM | 
O=S1(=O)NC(=NC23CC4CC(CC(C4)C2)C3)O[C@H]2CCCC[C@H]21 | 98% | 91% | 40 nM | 
O=S1(=O)NC(=NC23CC4CC(CC2C4)C3)O[C@H]2CCCC[C@H]21 (mixture of isomers) | 65% | 83% | 9 nM | 

Structure (SMILES) | metabolised at 20 min [1] | metabolised at 20 min [2] | IC50 [3] | also measured
CC(C)(NC1=NS(=O)(=O)[C@@H]2CCCC[C@@H]2O1)c1ccccc1 (mixture of isomers) |  |  | 444 nM | 
O=S1(=O)NC(=N[C@@H](CO)c2ccccc2)O[C@H]2CCCC[C@H]21 (mixture of isomers) |  |  | 152 nM | 
O=S1(=O)N=C(N[C@@H](CCO)c2ccccc2)O[C@H]2CCCC[C@H]21 (mixture of isomers) | 41% | 77% | 16 nM | 
NC(=O)C[C@H](NC1=NS(=O)(=O)[C@@H]2CCCC[C@@H]2O1)c1ccccc1 (mixture of isomers) | 35% | 47% |  | 
O=S1(=O)N=C(NC23CCCC2CCC3)O[C@H]2CCCC[C@H]21 (mixture of isomers) |  |  | 47 nM | 
O=S1(=O)N=C(NC23CCC(F)(CC2)CC3)O[C@H]2CCCC[C@H]21 (mixture of isomers) |  |  | 454 nM | 
O=S1(=O)N=C(NC23CCC(O)(CC2)CC3)O[C@H]2CCCC[C@H]21 (mixture of isomers) | 20% | 12% | 695 nM | 
O=S1(=O)NC(=NC23CC4CC(CC(O)(C4)C2)C3)O[C@H]2CCCC[C@H]21 (mixture of isomers) |  |  | 400 nM | 
O=S1(=O)NC(=NCC23CC4CC(CC(C4)C2)C3)O[C@H]2CCCC[C@H]21 (mixture of isomers) |  |  | 76 nM | 
O=S1(=O)N=C(NC2CCCCC2)O[C@H]2CCCC[C@H]21 (racemic) | 19% | 18% |  | 
O=S1(=O)N=C(NC2CCCCC2)O[C@H]2CCNC[C@H]21 (racemic) |  |  |  | IC50 [8]: > 2250 nM
O=S1(=O)NC(=NC2CCCCC2)O[C@@H]2CCNC[C@H]21 (racemic) |  |  |  | IC50 [8]: > 2250 nM
CN1CC[C@@H]2OC(=NC3CCCCC3)NS(=O)(=O)[C@@H]2C1 (racemic) |  |  |  | IC50 [8]: > 2250 nM
O=S1(=O)N=C(NC2CCCCCC2)O[C@H]2CCCC[C@H]21 (racemic) | 54% | 45% | 87 nM | 
O=S1(=O)N=C(NC2CCCCCCC2)O[C@H]2CCCC[C@H]21 (racemic) | 84% | 79% | 31 nM | 
CC1(C)CCC(N=C2NS(=O)(=O)[C@@H]3CCCC[C@@H]3O2)CC1 (racemic) | 55% | 55% | 455 nM | 
CC1(C)CC(NC2=NS(=O)(=O)[C@@H]3CCCC[C@@H]3O2)CC(C)(C)C1 (racemic) | 97% | 93% | 57 nM | 
O=S1(=O)NC(=NCC2CCCCC2)O[C@H]2CCCC[C@H]21 (racemic) |  |  | 729 nM | 
